Laboratory results taken from ChEMBL document CHEMBL1201862, “PubChem BioAssay data set” (2004).
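Briefly, cells in 96-well plates were exposed to five compound concentrations for 48 h, and endpoints were estimated by linear interpolation. At the GI50, growth is halved.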 Activity calls are given as the source filed them. Cut-off read from the data, not from the text of the source: active = GI50 up to about 1.1 µM and inactive = higher.

Key:
Test in all cases: DTP human tumour cell line panel, 48 h
786-0 = tested on: 786-0
A498 = tested on: A498
A549 = tested on: A549
ACHN = tested on: ACHN
CAKI-1 = tested on: CAKI-1
CCRF-CEM = tested on: CCRF-CEM
COLO 205 = tested on: COLO 205
DLD-1 = tested on: DLD-1
DMS-114 = tested on: DMS-114
DMS-273 = tested on: DMS-273
EKVX = tested on: EKVX
HCC 2998 = tested on: HCC 2998
HCT-116 = tested on: HCT-116
HCT-15 = tested on: HCT-15
HL-60 = tested on: HL-60
HOP-18 = tested on: HOP-18
HOP-62 = tested on: HOP-62
HT-29 = tested on: HT-29
IGROV-1 = tested on: IGROV-1
K562 = tested on: K562
KM-20L2 = tested on: KM-20L2
LOX IMVI = tested on: LOX IMVI
LXFL 529 = tested on: LXFL 529
M14 = tested on: M14
M19-MEL = tested on: M19-MEL
MOLT-4 = tested on: MOLT-4
NCI-H23 = tested on: NCI-H23
NCI-H460 = tested on: NCI-H460
OVCAR-3 = tested on: OVCAR-3
OVCAR-4 = tested on: OVCAR-4
OVCAR-8 = tested on: OVCAR-8
SF-268 = tested on: SF-268
SF-295 = tested on: SF-295
SF-539 = tested on: SF-539
SK-MEL-28 = tested on: SK-MEL-28
SK-MEL-5 = tested on: SK-MEL-5
SK-OV-3 = tested on: SK-OV-3
SN12C = tested on: SN12C
SNB-19 = tested on: SNB-19
SNB-75 = tested on: SNB-75
SNB-78 = tested on: SNB-78
SW-620 = tested on: SW-620
TK-10 = tested on: TK-10
U-251 = tested on: U-251
UACC-62 = tested on: UACC-62
UO-31 = tested on: UO-31
XF498 = tested on: XF498

O/N=C1/CCCC/C1=C\c1ccc(Cl)c(Cl)c1
GI50 (786-0): 29.9 µM (inactive)
GI50 (A498): 29.6 µM (inactive)
GI50 (A549): 30.1 µM (inactive)
GI50 (ACHN): 28.7 µM (inactive)
GI50 (CAKI-1): 32.5 µM (inactive)
GI50 (CCRF-CEM): 18.9 µM (inactive)
GI50 (COLO 205): 19.7 µM (inactive)
GI50 (DLD-1): 32.9 µM (inactive)
GI50 (DMS-114): 19.3 µM (inactive)
GI50 (DMS-273): 24.7 µM (inactive)
GI50 (EKVX): 23.9 µM (inactive)
GI50 (HCC 2998): 29 µM (inactive)
GI50 (HCT-116): 17.2 µM (inactive)
GI50 (HCT-15): 28.4 µM
GI50 (HL-60): 3.8 µM (inactive)
GI50 (HOP-18): 22.1 µM (inactive)
GI50 (HOP-62): 49 µM (inactive)
GI50 (HT-29): 18.8 µM (inactive)
GI50 (IGROV-1): 38 µM (inactive)
GI50 (K562): 27.8 µM (inactive)
GI50 (KM-20L2): 20.5 µM (inactive)
GI50 (LOX IMVI): 21 µM (inactive)
GI50 (LXFL 529): 19.7 µM (inactive)
GI50 (M14): 28.2 µM (inactive)
GI50 (M19-MEL): 37.3 µM (inactive)
GI50 (MOLT-4): 15.2 µM (inactive)
GI50 (NCI-H23): 28.8 µM (inactive)
GI50 (NCI-H460): 23.9 µM (inactive)
GI50 (OVCAR-3): 21.8 µM (inactive)
GI50 (OVCAR-4): 21.5 µM (inactive)
GI50 (OVCAR-8): 33.7 µM (inactive)
GI50 (SF-268): 25.1 µM (inactive)
GI50 (SF-295): 40.5 µM (inactive)
GI50 (SF-539): 19 µM (inactive)
GI50 (SK-MEL-28): 34.2 µM (inactive)
GI50 (SK-MEL-5): 16.1 µM (inactive)
GI50 (SK-OV-3): 35.3 µM (inactive)
GI50 (SN12C): 18.4 µM (inactive)
GI50 (SNB-19): 27.9 µM (inactive)
GI50 (SNB-75): 20.7 µM (inactive)
GI50 (SNB-78): 22.9 µM (inactive)
GI50 (SW-620): 46.6 µM (inactive)
GI50 (TK-10): 34.8 µM (inactive)
GI50 (U-251): 17.3 µM (inactive)
GI50 (UACC-62): 29.7 µM (inactive)
GI50 (UO-31): 20.8 µM (inactive)
GI50 (XF498): 19.8 µM (inactive)
